Experimental data reported in BindingDB's records for patent US9828374 (Hoffmann-La Roche, 2017).
pKi: −log10 of the molar value.

Target: Trace amine-associated receptor 1 (Mus musculus, UniProt Q923Y8)
Assay: Radioligand Binding Assay
Experimental: Nonspecific binding was defined as the amount of [H]-(S)-4-[(ethyl-phenyl-amino)-methyl]-4,5-dihydro-oxazol-2-ylamine bound in the presence of 10 μM unlabeled ligand. All compounds were tested at a broad range of concentrations ([…]) in duplicates.

Sequence of Trace amine-associated receptor 1 (Q923Y8 whole entry): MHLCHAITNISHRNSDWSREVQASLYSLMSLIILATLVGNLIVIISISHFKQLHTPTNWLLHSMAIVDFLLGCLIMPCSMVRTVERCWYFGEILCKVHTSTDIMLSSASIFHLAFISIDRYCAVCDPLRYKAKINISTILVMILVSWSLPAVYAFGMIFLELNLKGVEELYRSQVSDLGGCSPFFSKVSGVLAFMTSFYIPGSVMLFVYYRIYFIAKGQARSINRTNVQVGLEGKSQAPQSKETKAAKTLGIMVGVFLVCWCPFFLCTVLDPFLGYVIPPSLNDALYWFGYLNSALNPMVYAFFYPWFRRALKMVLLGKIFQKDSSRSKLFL

Row | Compound | pKi
1 | O=C(Nc1ccc2c(c1)CCN1CCNC[C@@H]21)c1cnc(C(F)(F)F)nc1 [US9828374, Example 4] | 6.72
2 | Fc1c(Nc2cc(Cl)nc(C(F)(F)F)n2)ccc2c1CCN1CCNC[C@@H]21 [US9828374, Example 34] | 7.10
3 | Brc1ccc2c(c1)CCN1CCNC[C@@H]21 [US9828374, Example 2] | 6.74
4 | Cc1cc(Nc2ccc3c(c2)CCN2CCNC[C@@H]32)nc(OCC(F)(F)F)n1 [US9828374, Example 26] | 7.39
